According to PMC4965777, “Molecular characterization of Tps1 and Treh genes in Drosophila and their role in body water homeostasis” (Scientific Reports, 2016):

What was measured:
Format in all cases: biochemical
[1] = molecular target: T1, CG5171 (Drosophila melanogaster, UniProt Q9VM19); experiment: dephosphorylation; trehalose released determined with trehalase and glucose assay kit; settings: 0.5 mM T6P; 5 mM MgCl2; PBS-type phosphate buffer pH 7.4; 30 °C; 0.02 nmol enzyme in 30 μl
T1 construct: gene Tpp; N-terminal His-tag (pET28a), E. coli BL21(DE3), Ni-NTA
T1 sequence (Q9VM19 1-273): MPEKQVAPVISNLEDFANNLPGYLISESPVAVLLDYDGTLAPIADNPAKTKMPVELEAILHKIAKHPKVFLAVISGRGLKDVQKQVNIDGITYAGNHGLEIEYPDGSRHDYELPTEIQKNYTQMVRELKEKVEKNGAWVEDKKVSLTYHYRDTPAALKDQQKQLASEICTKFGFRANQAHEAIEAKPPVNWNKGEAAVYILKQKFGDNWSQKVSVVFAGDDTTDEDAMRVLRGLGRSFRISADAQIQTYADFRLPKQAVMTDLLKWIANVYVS

[2] = molecular target: T2, Tps1-TPP (Drosophila melanogaster, UniProt Q9Y119); experiment: as above; settings: 0.5 mM T6P; 5 mM MgCl2; PBS-type phosphate buffer pH 7.4; 30 °C; 0.02 nmol enzyme in 30 μl
T2 construct: C-terminal TPP domain only (borders not in text), N-terminal His-tag (pET28a), E. coli BL21(DE3), Ni-NTA
T2 sequence (Q9Y119 entry or part of it): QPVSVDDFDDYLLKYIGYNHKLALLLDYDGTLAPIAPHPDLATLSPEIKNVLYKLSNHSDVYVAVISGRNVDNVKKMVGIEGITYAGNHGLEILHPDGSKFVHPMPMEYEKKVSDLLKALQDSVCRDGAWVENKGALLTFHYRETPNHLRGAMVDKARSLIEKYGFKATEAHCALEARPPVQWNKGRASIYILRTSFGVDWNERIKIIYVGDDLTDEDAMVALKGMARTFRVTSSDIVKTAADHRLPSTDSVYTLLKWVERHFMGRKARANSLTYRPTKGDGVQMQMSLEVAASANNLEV

[3] = molecular target: T3, OtsB (Escherichia coli, UniProt P31678); experiment: as above; settings: 0.5 mM T6P; 5 mM MgCl2; PBS-type phosphate buffer pH 7.4; 30 °C; 0.02 nmol enzyme in 30 μl
T3 construct: N-terminal His-tag (pET28a), E. coli BL21(DE3), Ni-NTA
T3 sequence (P31678 whole entry): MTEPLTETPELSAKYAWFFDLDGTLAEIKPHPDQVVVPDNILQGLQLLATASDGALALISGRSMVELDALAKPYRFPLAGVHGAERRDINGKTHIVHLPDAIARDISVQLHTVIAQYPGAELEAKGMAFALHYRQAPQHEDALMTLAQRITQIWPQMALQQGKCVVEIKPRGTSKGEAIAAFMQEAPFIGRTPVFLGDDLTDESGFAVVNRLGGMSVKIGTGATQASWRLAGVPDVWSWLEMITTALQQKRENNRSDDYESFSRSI

[4] = molecular target: T4, cTreh (Drosophila melanogaster, UniProt A4UZR3); experiment: trehalose hydrolysis; glucose released determined with glucose assay kit; settings: 5 μg trehalose; 0.12 pmol His-cTreh in 15 μl PBS; 30 °C, 2 h
T4 construct: gene Treh; cytoplasmic isoform without signal peptide, N-terminal His-tag (pET28a), E. coli BL21(DE3), Ni-NTA
T4 sequence (A4UZR3 1-560): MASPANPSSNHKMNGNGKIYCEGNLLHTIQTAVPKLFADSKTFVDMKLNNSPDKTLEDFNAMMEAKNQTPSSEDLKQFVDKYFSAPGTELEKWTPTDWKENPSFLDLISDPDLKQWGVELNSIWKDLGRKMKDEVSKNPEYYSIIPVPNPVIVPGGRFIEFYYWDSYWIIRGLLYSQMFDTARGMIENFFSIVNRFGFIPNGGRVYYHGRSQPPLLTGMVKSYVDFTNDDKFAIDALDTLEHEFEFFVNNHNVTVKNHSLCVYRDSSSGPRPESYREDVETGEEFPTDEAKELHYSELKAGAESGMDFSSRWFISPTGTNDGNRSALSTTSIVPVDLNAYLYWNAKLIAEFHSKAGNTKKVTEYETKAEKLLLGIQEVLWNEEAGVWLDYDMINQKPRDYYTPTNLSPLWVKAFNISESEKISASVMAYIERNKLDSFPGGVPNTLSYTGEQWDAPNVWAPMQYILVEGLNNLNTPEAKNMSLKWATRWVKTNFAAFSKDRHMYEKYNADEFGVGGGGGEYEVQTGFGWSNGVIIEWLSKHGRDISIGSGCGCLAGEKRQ

Structure (SMILES)	dephosphorylation; trehalose released determined with trehalase and glucose assa [1]	dephosphorylation; trehalose released determined with trehalase and glucose assa [2]	dephosphorylation; trehalose released determined with trehalase and glucose assa [3]	trehalose hydrolysis; glucose released determined with glucose assay kit [4]
O=P(O)(O)OC[C@H]1O[C@H](O[C@H]2O[C@H](CO)[C@@H](O)[C@H](O)[C@H]2O)[C@H](O)[C@@H](O)[C@@H]1O [trehalose-6-phosphate]	recombinant Tps1-TPP and CG5171, but not CG5177, dephosphorylated T6P under our experimental conditions	recombinant Tps1-TPP and CG5171, but not CG5177, dephosphorylated T6P under our experimental conditions	Tps1-TPP showed a lower activity than CG5171 and OtsB in vitro	–
OC[C@H]1O[C@H](O[C@H]2O[C@H](CO)[C@@H](O)[C@H](O)[C@H]2O)[C@H](O)[C@@H](O)[C@@H]1O [trehalose]	–	–	–	The recombinant cTreh exhibited a specific breakdown of trehalose to produce glucose in vitro
